# Columns and labels:
# [1] = system: control HSCs; assay: PVA HSC culture with recombinant TNFα, cell number; format: cell-based, mouse
# Excerpt: (§1) FIGS. 6A-6I: Dnmt3a-mutant HSCs maintain self-renewal and generate B lymphoid cells following TNF stimulation. (FIG. 6A) Schematic of experimental design to test response of Mx-Cre control and Dnmt3a^R878H/+ HSCs to recombinant TNFα ex vivo under growth conditions that favor HSC expansion. (FIG. 6B) Normalized frequency of donor-derived cells in PB of recipient mice post-transplant. Significance calculated using mixed-effects model with Fisher's LSD. (FIG. 6C) Representative flow cytometry plots showing B cell and myeloid cell frequencies in donor derived PB at 4 weeks post-transplant. (FIG. 6D) Frequency of myeloid (left) and B cells (right) in donor derived PB at 4 weeks post-transplant. Significance calculated using two-way ANOVA with Sidak's multiple comparison's test. (FIG. 6E) Schematic of experimental design to test TNFα response of Fgd5-Cre^ERT control vs. Fgd5-Cre^ERT Dnmt3a^R878H/+ HSCs, and germline Dnmt3a^+/+ vs. Dnmt3a^+/− HSCs. (FIGS. 6F-6G) Viable cell counts after 7 days of culture. Significance calculated using Brown-Forsythe and Welch ANOVA with Welch's correction. (FIG. 6H) Frequency of donor-derived cells in PB of recipient mice post-transplant. Significance calculated using mixed-effects model with Fisher's LSD. (FIG. 6I) Frequency of myeloid (left) and B cells (right) in donor derived PB at 4 weeks post-transplant. Significance calculated using one-way ANOVA with Fisher's LSD. (FIGS. 6B, 6D, and 6F-6I) Dots represent individual recipient mice, boxes show 25 to 75th percentile, line is median, whiskers show min to max. *P<0.05, **P<0.01, ***P<0.001.
# (§2) To assess the extent to which TNFα directly promotes young Dnmt3a-mutant HSC survival, we added recombinant TNFα to mixed cultures of wild-type and Dnmt3a-mutant HSCs in media that sustains HSC self-renewal (FIG. 6A). […]
# (§3) Two months post-poly(I:C), 25 CD45.2^+ from Dnmt3a^+/+ Mx-Cre or Dnmt3a^fl-R878H/+ Mx-Cre donors (CD45.2+) and 25 CD45.1^+/CD45.2^+ HSCs were sorted into a 96-well plate with Ham's F12 media containing final concentrations of 1× Penicillin-streptomycin-glutamine (Gibco cat. #10378-016), 10 mM HEPES (Gibco cat. #15630080), 1× Insulin-transferrin-selenium-ethanolamine (Gibco cat. #51500-056), 100 ng/mL recombinant murine TPO (Biolegend cat. #593302), 10 ng/mL recombinant murine SCF (StemCell Technologies cat. #78064), and 1 mg/mL polyvinyl alcohol (Sigma cat. #P8136)^19+/−10 ng/mL recombinant murine TNF-α (PeproTech cat. #315-01A) and cultured for seven days at 37° C. and 5% CO2. […] On day 7, half of the wells were stained and analyzed by flow cytometry and half of the wells were harvested, mixed with 1×10^6 CD45.1^+ post-ficoll whole BM cells, and transplanted into young, lethally irradiated CD45.1^+ recipients. […]
# [2] = system: Dnmt3a-mutant HSCs; assay: PVA HSC culture with recombinant TNFα, cell number; format: cell-based, mouse; settings: recombinant TNFα added to mixed cultures of wild-type and Dnmt3a^R878H HSCs
# Excerpt: as §1, §2, §3
# [3] = system: control HSCs; assay: Transplant of TNFα-treated cultured HSCs into recipient mice; format: in vivo, mouse
# Excerpt: as §1
# (§4) To assess the extent to which TNFα directly promotes young Dnmt3a-mutant HSC survival, we added recombinant TNFα to mixed cultures of wild-type and Dnmt3a-mutant HSCs in media that sustains HSC self-renewal (FIG. 6A). […] Post culture, cells were transplanted into recipient mice to assess HSC function. […] Thus, TNFα-driven myeloid regeneration at the expense of HSC self-renewal is disrupted in Dnmt3a^R878H/+ HSCs. Instead, TNFα-treated Dnmt3a^R878H/+ HSCs favor lymphoid regeneration and maintain their self-renewal. To assess this in complementary models, we used tamoxifen-inducible Fgd5-Cre-driven Dnmt3a^R878H/+ mice as well as germline Dnmt3a^+/− mice to isolate HSCs for TNFα stimulation (FIG. 6E). […] Thus, TNFα-induced HSC survival and disrupted myeloid regeneration are broadly relevant to Dnmt3a-mutant clonal hematopoiesis.
# (§5) Two months post-poly(I:C), 25 CD45.2^+ from Dnmt3a^+/+ Mx-Cre or Dnmt3a^fl-R878H/+ Mx-Cre donors (CD45.2+) and 25 CD45.1^+/CD45.2^+ HSCs were sorted into a 96-well plate with Ham's F12 media containing final concentrations of 1× Penicillin-streptomycin-glutamine (Gibco cat. #10378-016), 10 mM HEPES (Gibco cat. #15630080), 1× Insulin-transferrin-selenium-ethanolamine (Gibco cat. #51500-056), 100 ng/mL recombinant murine TPO (Biolegend cat. #593302), 10 ng/mL recombinant murine SCF (StemCell Technologies cat. #78064), and 1 mg/mL polyvinyl alcohol (Sigma cat. #P8136)^19+/−10 ng/mL recombinant murine TNF-α (PeproTech cat. #315-01A) and cultured for seven days at 37° C. and 5% CO2. TNF-α was spiked into the cultures on day 4 and 6. On day 7, half of the wells were stained and analyzed by flow cytometry and half of the wells were harvested, mixed with 1×10^6 CD45.1^+ post-ficoll whole BM cells, and transplanted into young, lethally irradiated CD45.1^+ recipients. PB was tracked monthly for six months post-transplant via flow cytometry.
# [4] = system: Dnmt3a-mutant HSCs; assay: as above; format: in vivo, mouse
# Excerpt: as §1, §4, §5
# [5] = donor-derived cells in PB post-transplant, FIG. 6B
# [6] = post-transplant, data not shown
substance,measurement,setting,value
TNFα,Number of control cells produced over the culture period,"[1]; Mx-Cre control, 10 ng/mL TNF-α, seven days, data not shown",reduced the number of control
same,Viable cell counts of control cells after 7 days of culture,"[1]; controls of the Fgd5-Cre and germline Dnmt3a^+/− models, FIGS. 6F-6G",reduced the number of control
same,Wild-type progeny in mixed cultures,[1]; recombinant TNFα added to mixed cultures of wild-type and Dnmt3a^R878H HSCs,depletion of wild-type progeny
same,Maintenance of Dnmt3a^R878H HSC progeny in mixed cultures,[2],preferential maintenance of Dnmt3a^R878H HSC progeny
same,Long-term multilineage engraftment of TNFα-treated control HSCs,[3]; [5],did not sustain long-term multilineage engraftment
same,"HSC, MPP^Mk/E and MPP^G/M populations in bone marrow from TNFα-treated control HSCs",[3]; [6],"trends toward reduced HSC, MPP^Mk/E, and MPP^G/M populations"
same,Dnmt3a^+/− B lymphoid relative to myeloid cell production,"[4]; donor-derived PB at 4 weeks post-transplant, FIG. 6I",transiently increased Dnmt3a^+/− B lymphoid relative to myeloid cell production
same,Dnmt3a^R878H/+ B lymphoid cell production,"[4]; donor-derived PB at 4 weeks post-transplant, FIGS. 6C-6D",transiently increased Dnmt3a^R878H/+ B lymphoid cell production
same,Mature hematopoietic cell production and engraftment of TNFα-treated Dnmt3a^R878H/+ HSCs,[4]; [5],increased production of mature hematopoietic cells in the short term (4 weeks post-transplant) followed by sustained multilineage engraftment
same,"HSC, MPP^Mk/E and MPP^G/M populations in bone marrow from TNFα-treated Dnmt3a^R878H/+ HSCs",[4]; [6],not observed in TNFα-treated Dnmt3a^R878H/+ HSCs
same,Multilineage engraftment of TNFα-treated Dnmt3a^+/− HSCs,"[4]; vs TNFα-treated control HSCs, FIG. 6H",sustained multilineage engraftment at a higher frequency than TNFα-treated control HSCs

# Source: patent US20250017949A1, “METHODS AND COMPOSITIONS FOR SUPPRESSING AGING-ASSOCIATED CLONAL HEMATOPOIESIS” (The Jackson Laboratory, priority 2021, published 2025)
